Legend:
[1] = target: T1, strychnine-insensitive glycine binding site on the NMDA receptor (Rattus norvegicus, UniProt P35439); assay: [3H]5,7-DCKA binding to rat cortical membranes; settings: 20 nM [3H]5,7-DCKA
T1 construct: from tissue; host or cells: rat cerebral cortex, crude synaptic (buffy coat) membranes
Experimental: Male Sprague-Dawley rats were killed, their brains removed, and their cerebral cortices dissected and binding of [^3H]5,7-dichlorokynurenate ([^3H]5,7-DCKA) assayed. [^3H]5,7-DCKA binding assays were performed in crude synaptic membranes prepared by a modification of the method of Jones, et al., J. Pharmacol. Methods, 21 161–168 (1989) the relevant disclosures of which are incorporated herein by reference. The pelleted “buffy coat”fraction was obtained by centrifugation and frozen at about −80° C. for at least 18 hours. On the day that the binding assays were performed, the pelleted membranes were resuspended in 50 mM HEPES-KOH buffer (pH 7.8) containing 0.08% TRITON® X-100. After stirring for about 30 min at about 4° C., the membranes were pelleted by recentrifugation and then washed twice by resuspension in buffer and centrifugation.
Binding assays were performed in 0.5 ml volume using 150–200 μg of tissue, 20 nM [^3H]5,7-DCKA and 3–300 μM DCUKA or MeO-DCUKA or 1–100 μM DCUK-OMe (all concentrations are final concentrations in 0.6% dimethyl sulfoxide (DMSO)). Incubations were performed for about 45 min at about 4° C. followed by termination by centrifugation. Bound radioactivity was quantitated by liquid scintillation spectroscopy. Non-specific binding was defined with 1 mM glycine.

[2] = target: T2, NMDA receptor ion channel (Rattus norvegicus, UniProt P35439); assay: [3H]dizocilpine binding to rat cortical membranes; settings: no exogenous glycine; 100 or 300 μM DCUKA, 30 or 100 μM DCUK-OMe; attenuated by 1 μM glycine
T2 construct: from tissue; host or cells: rat cerebral cortex, crude synaptic (buffy coat) membranes
Experimental: [^3H]Dizocilpine (MK-801) binding assays were performed in a volume of 1 ml containing 100–150 μg of tissue, 5 nM [^3H]dizocilpine, 10 μM L-glutamate, 30 μM MgSO4, and 100 or 300 μM DCUKA or 30 or 100 μM DCUK-OMe, in 10 mM HEPES-KOH buffer (pH 7.4 at 23° C.). Incubations were for 30 minutes at room temperature. The reaction mixtures were filtered over GF/B filters presoaked in 0.1% polyethyleneimine. Bound radioactivity was quantitated by liquid scintillation spectroscopy. Non-specific binding was defined with 20 μM dizocilpine. Under these conditions, [^3H]dizocilpine binding can be used as a measure of the activation of the NMDA receptor ion channel by glycine. See, for example, Wong, E. H. F., et al.,“ GLYCINE MODULATES [^3H]MK-801BINDING TO THE NMDA RECEPTOR IN RAT BRAIN.” Eur. J. Pharmacol., 142 487–488 (1987).
The results obtained are plotted in FIG. 2 where open bars indicate no glycine added and hatched bars indicate 1 μM glycine added to the incubation. Data were statistically analyzed by 2-way analysis of variance (ANOVA) followed by Tukey test. In FIG. 2, * denotes P<0.05 compared to the zero concentration of DCUKA or DCUK-OMe within a given glycine condition, while ** denotes P<0.05 compared to the 0 glycine condition at a given concentration of DCUKA or DCUK-OMe. […]

[3] = target: voltage-sensitive sodium channels; assay: [3H]BTX binding to rat cortical synaptosomes; settings: non-depolarizing conditions, none = no displacement at 100 μM, read-out: IC50 (μM) [3H]BTX binding
[4] = target: T3, rabbit cardiac L-type VSCC (Oryctolagus cuniculus, UniProt P15381); assay: Currents through VSCCs in oocytes, two electrode voltage clamp; type: cell-based; settings: 50 μM, Li+ currents, holding −80 mV, test −20 mV
T3 construct: expressed in transfected cells; host or cells: Xenopus laevis oocytes, cRNA injection
T3 sequence (P15381 whole entry): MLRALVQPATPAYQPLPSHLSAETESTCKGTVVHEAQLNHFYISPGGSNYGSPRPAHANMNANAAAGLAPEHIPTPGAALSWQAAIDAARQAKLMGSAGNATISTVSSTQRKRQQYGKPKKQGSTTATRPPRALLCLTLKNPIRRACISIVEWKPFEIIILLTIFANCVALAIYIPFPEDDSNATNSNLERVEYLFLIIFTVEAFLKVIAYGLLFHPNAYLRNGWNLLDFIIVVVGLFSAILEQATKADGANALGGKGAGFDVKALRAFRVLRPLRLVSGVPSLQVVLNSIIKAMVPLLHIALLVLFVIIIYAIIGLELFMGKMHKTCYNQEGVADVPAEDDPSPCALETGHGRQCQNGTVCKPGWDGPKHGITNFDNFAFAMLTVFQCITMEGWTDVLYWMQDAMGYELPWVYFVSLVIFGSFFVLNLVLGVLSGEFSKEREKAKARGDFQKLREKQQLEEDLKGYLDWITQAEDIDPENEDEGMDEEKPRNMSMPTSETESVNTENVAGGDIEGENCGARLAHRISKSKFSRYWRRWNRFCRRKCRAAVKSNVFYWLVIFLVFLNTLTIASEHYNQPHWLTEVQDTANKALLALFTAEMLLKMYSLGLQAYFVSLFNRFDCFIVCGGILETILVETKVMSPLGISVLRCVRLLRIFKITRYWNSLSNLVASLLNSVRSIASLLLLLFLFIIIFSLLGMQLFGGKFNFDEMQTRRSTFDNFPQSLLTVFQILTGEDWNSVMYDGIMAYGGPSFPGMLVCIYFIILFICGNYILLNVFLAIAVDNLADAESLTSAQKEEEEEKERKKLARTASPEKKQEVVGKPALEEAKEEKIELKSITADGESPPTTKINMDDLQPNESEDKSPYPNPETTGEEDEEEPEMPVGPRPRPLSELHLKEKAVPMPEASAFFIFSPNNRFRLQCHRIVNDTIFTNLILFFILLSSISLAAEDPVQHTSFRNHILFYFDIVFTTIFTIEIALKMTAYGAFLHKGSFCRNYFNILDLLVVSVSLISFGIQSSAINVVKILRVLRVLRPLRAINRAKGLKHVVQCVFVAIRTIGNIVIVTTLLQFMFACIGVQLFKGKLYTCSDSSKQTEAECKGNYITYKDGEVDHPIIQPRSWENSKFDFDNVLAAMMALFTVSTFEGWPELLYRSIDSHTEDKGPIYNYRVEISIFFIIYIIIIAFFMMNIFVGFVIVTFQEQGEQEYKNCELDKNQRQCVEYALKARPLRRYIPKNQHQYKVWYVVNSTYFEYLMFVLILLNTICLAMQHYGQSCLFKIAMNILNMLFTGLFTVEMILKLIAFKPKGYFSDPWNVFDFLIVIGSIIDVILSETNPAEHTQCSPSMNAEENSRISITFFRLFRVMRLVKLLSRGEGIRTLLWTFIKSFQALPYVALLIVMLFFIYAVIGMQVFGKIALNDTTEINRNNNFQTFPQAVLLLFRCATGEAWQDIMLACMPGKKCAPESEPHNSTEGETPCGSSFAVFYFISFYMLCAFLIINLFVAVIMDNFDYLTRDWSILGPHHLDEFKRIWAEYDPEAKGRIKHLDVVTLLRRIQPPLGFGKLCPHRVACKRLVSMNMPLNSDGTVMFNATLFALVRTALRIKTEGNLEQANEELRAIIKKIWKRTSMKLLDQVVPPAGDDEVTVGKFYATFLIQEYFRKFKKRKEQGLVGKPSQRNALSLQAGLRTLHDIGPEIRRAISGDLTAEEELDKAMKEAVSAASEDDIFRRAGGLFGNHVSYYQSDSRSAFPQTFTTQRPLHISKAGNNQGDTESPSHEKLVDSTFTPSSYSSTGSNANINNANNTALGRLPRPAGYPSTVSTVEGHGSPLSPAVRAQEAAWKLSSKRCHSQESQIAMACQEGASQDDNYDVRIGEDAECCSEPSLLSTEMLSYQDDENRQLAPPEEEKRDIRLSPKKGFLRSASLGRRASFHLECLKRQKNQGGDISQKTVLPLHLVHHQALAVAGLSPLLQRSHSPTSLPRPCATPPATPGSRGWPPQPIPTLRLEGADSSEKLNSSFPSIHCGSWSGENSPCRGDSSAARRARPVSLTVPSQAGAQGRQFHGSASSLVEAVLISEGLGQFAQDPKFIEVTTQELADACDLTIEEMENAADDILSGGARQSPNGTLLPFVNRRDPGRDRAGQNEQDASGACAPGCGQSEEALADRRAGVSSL
Experimental: In other studies, Stage V and VI oocytes were prepared from Xenopus laevis and maintained using the procedures described in Example 3. Oocytes were injected with cRNA encoding the rabbit cardiac L-type VSCC αic, together with the ancillary subunits α2/β and β2b in a 1:1:1 molar ratio. Macroscopic currents were recorded 4–6 days following injection using the two electrode voltage clamp technique. During recording, oocytes were maintained at room temperature in a perfusion chamber and perfused (1 ml/min) continuously with a buffer containing (in mM) 100 LiCl, 10 HEPES, 10 HEDTA, 14 TEA-Cl, 0.015 CaCl2, (effective free calcium concentration ˜3 nM), pH 7.4 with TEA-OH. The monovalent ion Li^+was used as the charge carrier rather than Ba^2+in these studies because high concentrations of divalent ions promoted precipitation of DCUKA.
DCUKA was made up as a stock solution in DMSO and used in the studies at a concentration of 50 μM, resulting in a final DMSO percentage of 0.25%. This concentration of DMSO enhanced Li^+currents to a small extent, however, this was controlled for by exchanging between solutions that were identical except for presence/absence of the drug itself. […] Li^+currents were recorded using an OC-725B amplifier (Warner Instruments), filtered at 1 kHz (4-pole Bessel filter, Warner Instruments) and sampled at 2 kHz. Voltage pulses of 250 ms duration were given every 15 sec. […]

`COC(=O)c1cc(NC(=O)N(c2ccccc2)c2ccccc2)c2c(Cl)cc(Cl)cc2n1` [DCUK-OMe, (N,N-diphenyl)-4-ureido-5,7-dichloro-2-carboxy-quinoline methyl ester] was tested, and the IC50 [1] was 5 µM, the “effect on [3H]dizocilpine binding” value [2] was “concentration-related decrease in [^3H]dizocilpine binding” and the IC50 [3] was 25 µM.
For `O=C(O)c1cc(NC(=O)N(c2ccccc2)c2ccccc2)c2c(Cl)cc(Cl)cc2n1` [DCUKA, (N,N-diphenyl)-4-ureido-5,7-dichloro-2-carboxy-quinoline], the “decrement in the current through VSCCs” value [4] was “less than 20%”, the IC50 [1] was 22 µM and the “effect on [3H]dizocilpine binding” value [2] was “concentration-related decrease in [^3H]dizocilpine binding”. It also gave an IC50 [3] of 76 µM.

Reference: patent US6962930B1, “Compounds, compositions and method suitable for amelioration of withdrawal syndromes and withdrawal-induced brain damage” (Lohocla Research Corporation, priority 1997, dated 2005)
